Drawing on ChEMBL document CHEMBL4483862, “Open-source discovery of chemical leads for next-generation chemoprotective antimalarials” (2018), this text covers IC50 and IC90 for 41 molecules.

For the assay, the system named is Plasmodium berghei. In words: Luciferase/luciferin-expressing antifolate-resistant parasites were used to infect a culture of HepG2 cells that were pre-incubated with compounds. Infected hepatocytes emit light due to the luciferase reaction. Assay results are presented as the percent inhibition of light emission compared to control. […]. Type of assay: functional. The conditions noted are these: sporozoite; for IC90: read-out: LUCIFERASE INFECTION ASSAY - IC90.

Setting [1] is: read-out: LUCIFERASE INFECTION ASSAY - IC50.

As usually defined, the IC50 is the midpoint of a concentration-inhibition curve. By IC90 is commonly meant the concentration at which the effect reaches the 90% level. As for `O=C(CCSCc1cc(Cl)c2c(c1)OCO2)Nc1ccc(Cl)cc1F`, the IC90 was greater than 10 µM. The IC50 under setting [1] was greater than 10 µM.
In the case of `Cc1c(C(=O)Nc2ncc(Cc3ccccc3)s2)[nH]c2c1C(=O)CC(C)(C)C2`, the IC90 was greater than 10 µM. Besides, the IC50 under setting [1] is greater than 10 µM.
In the case of `N#C/C(=C\c1ccccc1Cl)c1nc2ccccc2[nH]1`, the IC90 is greater than 11.8 µM. Besides, under setting [1], the IC50 was greater than 11.8 µM.
On to `COc1cccc(N2C(=O)C=CC2=O)c1`, for which the IC90 is greater than 16.2 µM. Also, for the setting “FFLUC_HILL_SLOPE 1.51, FFLUC_R_SQUARED 0.52, PBLUC_HILL_SLOPE 2.51, PBLUC_R_SQUARED 0.451, read-out: LUCIFERASE INFECTION ASSAY - IC50”, the half-maximal inhibitory concentration (IC50) came out at 10.2 µM.
Take `Cc1sc2nc(-c3cccs3)nc(N3CCCN(CC(=O)NC(C)C)CC3)c2c1C`: the IC90 was greater than 10 µM. Further, the IC50 (PBLUC_HILL_SLOPE 9.52, PBLUC_R_SQUARED 0.368, read-out: LUCIFERASE INFECTION ASSAY - IC50) was determined as 8.07 µM.
For `CC(=O)Nc1ccc(S(=O)(=O)Oc2ccc(C)cc2[N+](=O)[O-])cc1`, the IC90 is greater than 9.42 µM. Under setting [1], the 50% inhibitory concentration (IC50) was greater than 9.42 µM.
Consider `O=C(Nc1nc2ccccc2[nH]1)c1cn(-c2ccccc2C(F)(F)F)nn1`, for which the IC90 is greater than 10 µM. Further, the IC50 (FFLUC_HILL_SLOPE 2.58, FFLUC_R_SQUARED 0.587, PBLUC_HILL_SLOPE 2.16, PBLUC_R_SQUARED 0.829, read-out: LUCIFERASE INFECTION ASSAY - IC50) was 5.53 µM.
Turning to `O=C(Nc1cccc(Cl)c1)Nc1cccc(Cl)c1`, the IC90 came out at 5.51 µM. For the same molecule, the IC50 (PBLUC_HILL_SLOPE 3.72, PBLUC_R_SQUARED 0.618, read-out: LUCIFERASE INFECTION ASSAY - IC50) was found to be 3.05 µM.
For the molecule `CC(=O)N(c1ccc(Cl)c(Cl)c1)c1nc(CN2CCCCCC2)cs1`, the IC90 stood at 9.28 µM. Also, under setting [1], the IC50 is 4.55 µM.
With `Cc1nn(-c2ccc(Cl)cc2)c2sc(C(=O)NCC3(N(C)C)CCCCC3)cc12`, the IC90 is 5.31 µM. Moreover, the IC50 (HEPG2TOX_HILL_SLOPE 22.9, HEPG2TOX_R_SQUARED 0.594, PBLUC_HILL_SLOPE 11.3, PBLUC_R_SQUARED 0.837, read-out: LUCIFERASE INFECTION ASSAY - IC50) was 4.37 µM.
Turning to `COc1ccc(C(C)(O)c2nc(-c3ccccc3C)cs2)cc1` (configuration not stated), the IC90 came to 3.04 µM. Moreover, the 50% inhibitory concentration (IC50) (HEPG2TOX_HILL_SLOPE 3.12, HEPG2TOX_R_SQUARED 0.895, PBLUC_HILL_SLOPE 4.56, PBLUC_R_SQUARED 0.531, read-out: LUCIFERASE INFECTION ASSAY - IC50) stood at 1.88 µM.
As for `CC(C)C(=O)Nc1c(-c2ccc(Cl)c(Cl)c2)c(=O)c2ccccc2n1C`, the IC90 worked out at 3.11 µM. Also, the IC50 (PBLUC_HILL_SLOPE 11.7, PBLUC_R_SQUARED 0.375, read-out: LUCIFERASE INFECTION ASSAY - IC50) was 2.58 µM.
`CCOC(=O)/C=c1\s/c(=C\c2ccc(N3CCCCC3)c([N+](=O)[O-])c2)c(=O)n1CC(=O)N1CCC(C)CC1`: the IC90 was greater than 10 µM. For the same molecule, the half-inhibitory concentration (IC50) (FFLUC_HILL_SLOPE 86.1, FFLUC_R_SQUARED 0.469, PBLUC_HILL_SLOPE 14.4, PBLUC_R_SQUARED 0.0813, read-out: LUCIFERASE INFECTION ASSAY - IC50) is greater than 10 µM.
For the molecule `COc1ccc(/C=C2\CSc3ccc(Cl)cc3C2=O)cc1`, the IC90 is 5.42 µM. Further, where the note is “HEPG2TOX_HILL_SLOPE 3.81, HEPG2TOX_R_SQUARED 0.977, PBLUC_HILL_SLOPE 10.6, PBLUC_R_SQUARED 0.089, read-out: LUCIFERASE INFECTION ASSAY - IC50”, the IC50 was determined as 4.41 µM.
As for `CCOC(=O)c1nn(CCc2ccccc2)c2c1CN(C(=O)c1cc(C)n[nH]1)CC2`, the IC90 is greater than 8.1 µM. For the same molecule, the half-inhibitory concentration (IC50) (PBLUC_HILL_SLOPE 3.03, PBLUC_R_SQUARED 0.7, read-out: LUCIFERASE INFECTION ASSAY - IC50) came out at 4.26 µM.
On to `COc1ccc(NC(=O)c2ccoc2)cc1S(=O)(=O)Nc1ccc(Br)cc1`, for which the IC90 is 1.62 µM. For the same molecule, the IC50 (HEPG2TOX_HILL_SLOPE 1.42, HEPG2TOX_R_SQUARED 0.956, PBLUC_HILL_SLOPE 2.25, PBLUC_R_SQUARED 0.81, read-out: LUCIFERASE INFECTION ASSAY - IC50) is 0.611 µM.
As for `COC(=O)CSCCc1nc(-c2ccc(C(F)(F)F)cc2)cs1`, the IC90 was 8.8 µM. Moreover, under “PBLUC_HILL_SLOPE 1.19, PBLUC_R_SQUARED 0.68, read-out: LUCIFERASE INFECTION ASSAY - IC50”, the IC50 was 1.39 µM.
With `O=C(O)c1c(CN2CCN(c3ccccc3)CC2)c(O)c2ccccc2c1O`, the IC90 turned out to be 8.28 µM. The IC50 (HEPG2TOX_HILL_SLOPE 4.36, HEPG2TOX_R_SQUARED 0.83, PBLUC_HILL_SLOPE 4.96, PBLUC_R_SQUARED 0.0239, read-out: LUCIFERASE INFECTION ASSAY - IC50) came to 5.31 µM.
Regarding `O=c1cc(CN2CCCc3ccc(C(F)(F)F)cc32)nc2sccn12`, the IC90 is greater than 10 µM. The IC50 under setting [1] is greater than 10 µM.
Turning to `Clc1ccccc1COc1ccccc1CNCc1cccnc1`, the IC90 is greater than 9.74 µM. The 50% inhibitory concentration (IC50) under setting [1] is greater than 9.74 µM.
Take `COc1ccc(OC)c(/C=c2\s/c(=C(/C#N)c3nnc4n3CCCCC4)n(-c3ccccc3)c2=O)c1`: the IC90 was greater than 10 µM. For the same molecule, where the note is “PBLUC_HILL_SLOPE 2.48, PBLUC_R_SQUARED 0.654, read-out: LUCIFERASE INFECTION ASSAY - IC50”, the IC50 came out at 4.74 µM.
Take `Cc1cc(C(=O)COC(=O)c2[nH]nc3ccccc23)c(C)n1Cc1cccs1`: the IC90 is 6.39 µM. Also, the half-maximal inhibitory concentration (IC50) (PBLUC_HILL_SLOPE 1.56, PBLUC_R_SQUARED 0.399, read-out: LUCIFERASE INFECTION ASSAY - IC50) was found to be 1.56 µM.
For the molecule `COCCNC(=O)c1nn(CCC(C)C)c2c1CN(C(=O)c1cc(C)n[nH]1)CC2`, the 90% effect concentration (IC90) is 3.47 µM. Further, under “PBLUC_HILL_SLOPE 11.6, PBLUC_R_SQUARED 0.412, read-out: LUCIFERASE INFECTION ASSAY - IC50”, the half-maximal inhibitory concentration (IC50) came to 2.87 µM.
Regarding `Cc1cc(C)nc(N/N=C2/CCCC/C2=C\c2ccccc2)n1`, the concentration for an effect of 90% (IC90) was greater than 10 µM. Also, the IC50 under setting [1] is greater than 10 µM.
As for `CC(Oc1ccc(Cl)cc1Cl)C(=N)NO` (configuration not stated), the IC90 is greater than 13.2 µM. Also, the IC50 under setting [1] was greater than 13.2 µM.
`Cc1cc([N+](=O)[O-])cc(S(=O)(=O)N(Cc2ccc(C(=O)NC3CC3)cc2)C2CC2)c1C`: the IC90 amounted to 2.18 µM. The concentration for half-maximal inhibition (IC50) (PBLUC_HILL_SLOPE 2.2, PBLUC_R_SQUARED 0.808, read-out: LUCIFERASE INFECTION ASSAY - IC50) was 0.801 µM.
Consider `CC(=O)N1CCN(S(=O)(=O)c2cccc(C(=O)OCC(=O)c3ccc4c(c3)-c3ccccc3C4)c2)CC1`, for which the IC90 was greater than 10 µM. Further, the half-maximal inhibitory concentration (IC50) under setting [1] is greater than 10 µM.
In the case of `O=C(CSc1nnc(Nc2ccc(Oc3ccccc3)cc2)s1)c1cccs1`, the IC90 came out at 4.38 µM. Where the note is “FFLUC_HILL_SLOPE 2.69, FFLUC_R_SQUARED 0.808, PBLUC_HILL_SLOPE 3.49, PBLUC_R_SQUARED 0.557, read-out: LUCIFERASE INFECTION ASSAY - IC50”, the half-inhibitory concentration (IC50) came out at 2.33 µM.
In the case of `O=C(NNC(=O)c1cccs1)c1cncc(C#Cc2ccccc2)c1`, the IC90 is greater than 9.5 µM. Also, the IC50 under setting [1] was greater than 9.5 µM.
In the case of `Cc1cccc(C(=O)NCCC(=O)NCc2ccccc2F)c1`, the IC90 is greater than 10 µM. Besides, under setting [1], the IC50 was greater than 10 µM.
For `CCOc1ccc(OCCC(=O)NCc2cccc(C(F)(F)F)c2)cc1`, the IC90 is greater than 10 µM. In addition, under setting [1], the IC50 was greater than 10 µM.
`Fc1ccc(-c2cnn3c(NCCCN4CCOCC4)ccnc23)cc1Cl`: the IC90 was greater than 8.46 µM. Further, the IC50 (PBLUC_HILL_SLOPE 1.9, PBLUC_R_SQUARED 0.489, read-out: LUCIFERASE INFECTION ASSAY - IC50) turned out to be 4.05 µM.
In the case of `CS(=O)(=O)Nc1ccc(S(=O)(=O)NC23CC4CC(CC(C4)C2)C3)cc1`, the IC90 is greater than 8.58 µM. Moreover, under setting [1], the IC50 was greater than 8.58 µM.
On to `CC(C)(C)NC(=S)N/N=C/c1cc(Cl)cc(Cl)c1O`, for which the IC90 was determined as 6.66 µM. Where the note is “HEPG2TOX_HILL_SLOPE 1.14, HEPG2TOX_R_SQUARED 0.984, PBLUC_HILL_SLOPE 2.14, PBLUC_R_SQUARED 0.291, read-out: LUCIFERASE INFECTION ASSAY - IC50”, the IC50 was 2.39 µM.
As to `CC(C)(C)c1ccc(-c2cnc3cnc(-c4cccc(C(N)=O)c4)cn23)cc1`, the IC90 was greater than 8.91 µM. Further, the IC50 (PBLUC_HILL_SLOPE 3.04, PBLUC_R_SQUARED 0.545, read-out: LUCIFERASE INFECTION ASSAY - IC50) is 6.86 µM.
For the molecule `Cc1c(Cl)cccc1NC(=O)CNC(=O)CN1CCc2ccccc2C1`, the IC90 was greater than 10 µM. The IC50 under setting [1] is greater than 10 µM.
Turning to `Cc1ccc(NC(=O)c2cc(C(C)(C)C)n(-c3ccccc3)c2C)cc1`, the IC90 was determined as 4.46 µM. Also, under setting [1], the half-maximal inhibitory concentration (IC50) was found to be 0.52 µM.
As to `Cc1cccc(Nc2ccccc2C(=O)OCC(=O)N2CCNC2=O)c1C`, the concentration for an effect of 90% (IC90) came out at 7.08 µM. For the same molecule, for the setting “PBLUC_HILL_SLOPE 113, PBLUC_R_SQUARED 0.339, read-out: LUCIFERASE INFECTION ASSAY - IC50”, the 50% inhibitory concentration (IC50) stood at 6.94 µM.
For the molecule `CN(C)C(S)=Nc1ccc(Cl)cc1`, the IC90 is greater than 15.4 µM. The IC50 under setting [1] is greater than 15.4 µM.
With `COc1cc(C(=O)NNC(=O)c2ccc(Br)cc2)ccc1OCc1c(C)noc1C`, the IC90 came out at 7.1 µM. The IC50 (HEPG2TOX_HILL_SLOPE 1.09, HEPG2TOX_R_SQUARED 0.959, PBLUC_HILL_SLOPE 2.18, PBLUC_R_SQUARED 0.498, read-out: LUCIFERASE INFECTION ASSAY - IC50) is 2.59 µM.
For the molecule `Cc1nn(-c2ccccc2)c(C)c1C(=O)NCc1cccc(NC(=O)C(C)C)c1`, the IC90 stood at 7.7 µM. Besides, under “PBLUC_HILL_SLOPE 6.57, PBLUC_R_SQUARED 0.408, read-out: LUCIFERASE INFECTION ASSAY - IC50”, the IC50 is 5.51 µM.
